Measurements from patent US10329295B2, “Pyrrolotriazine inhibitors of IRAK4 activity” (MERCK SHARP & DOHME CORP., priority 2015, dated 2019).
Where a name gives a salt, the structure may show the parent alone.

Biological target: GST tagged IRAK4 (Homo sapiens (Human), UniProt Q9NWZ3)
Assay: IRAK4 Kinase Assay (IMAP fluorescence polarization)
Format: biochemical
Conditions: 0.5 nM GST tagged IRAK4, 100 μM ATP, 30 minutes at 25° C.
Summary of the method: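 Reactions contained 0.5 nM GST-IRAK4, 100 nM fluorescent peptide substrate and 100 μM ATP in 10 mM Tris-HCl pH 7.2 with 1 mM MgCl2, and were started with ATP. After 30 minutes at 25° C they were stopped with IMAP reagent. Substrate phosphorylation was read as the change in fluorescence polarization.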

Sequence of GST tagged IRAK4 (Q9NWZ3 whole entry): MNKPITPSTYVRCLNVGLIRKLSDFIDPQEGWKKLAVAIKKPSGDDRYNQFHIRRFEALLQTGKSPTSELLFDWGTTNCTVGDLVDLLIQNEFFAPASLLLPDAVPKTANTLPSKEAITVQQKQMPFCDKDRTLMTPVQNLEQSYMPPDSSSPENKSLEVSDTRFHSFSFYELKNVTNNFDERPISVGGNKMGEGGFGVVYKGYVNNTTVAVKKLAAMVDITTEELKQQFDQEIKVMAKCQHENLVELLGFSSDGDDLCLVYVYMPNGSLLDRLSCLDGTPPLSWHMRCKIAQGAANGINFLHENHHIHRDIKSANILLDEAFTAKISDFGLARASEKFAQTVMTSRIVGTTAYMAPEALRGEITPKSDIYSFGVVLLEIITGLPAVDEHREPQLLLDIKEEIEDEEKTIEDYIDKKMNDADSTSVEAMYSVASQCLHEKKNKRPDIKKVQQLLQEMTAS

| SMILES | IC50 [nM] |
| --- | --- |
| O=C(Nc1ccsc1Br)c1ccc2cnc(N3C[C@@H]4CC[C@H]3CN4)nn12 (single isomer, unassigned) [Example 48, N-(2-bromothiophen-3-yl)-2-[(1S,4S)- or (1R,4R)-2,5-diazabicyclo[2.2.2]oct-2-yl]pyrrolo[2,1-f][1,2,4]triazine-7-carboxamide trifluoroacetate] | 1650 |
| Cn1cc(NC(=O)c2ccc3cnc(N[C@@H]4CNC[C@H](F)C4)nn23)c(C(F)(F)F)n1 [Example 154, 2-{[(3S,5R)-5-fluoropiperidin-3-yl]amino}-N-[1-methyl-3-(trifluoromethyl)-1H-pyrazol-4-yl]pyrrolo[2,1-f][1,2,4]triazine-7-carboxamide] | 53 |
| Cn1cc(NC(=O)c2ccc3cnc(N[C@@H]4CCCC[C@@H]4N)nn23)c(Br)n1 [Example 66, 2-{[(1R,2S)-2-aminocyclohexyl]amino}-N-(3-bromo-1-methyl-1H-pyrazol-4-yl)pyrrolo[2,1-f][1,2,4]triazine-7-carboxamide trifluoroacetate] | 1 |
| Cn1cc(NC(=O)c2ccc3cnc(N[C@@H]4CCC(F)(F)C[C@@H]4N)nn23)c(C(F)(F)F)n1 (single isomer, unassigned) [Example 132, 2-{[(1S,2R)- or (1R,2S)-2-amino-4,4-difluorocyclohexyl]amino}-N-[1-methyl-3-(trifluoromethyl)-1H-pyrazol-4-yl]pyrrolo[2,1-f][1,2,4]triazine-7-carboxamide trifluoroacetate] | 655 |
| Cn1cc(NC(=O)c2ccc3cnc(N[C@@H]4CCCCNC4)nn23)c(C(F)F)n1 (single isomer, unassigned) [Example 90, 2-[(3S)- or (3R)-azepan-3-ylamino]-N-[3-(difluoromethyl)-1-methyl-1H-pyrazol-4-yl]pyrrolo[2,1-f][1,2,4]triazine-7-carboxamide trifluoroacetate] | 0.7 |
| Cn1cc(NC(=O)c2ccc3cnc(N[C@@H]4CCCNC4)nn23)c(C(F)(F)F)n1 [Example 5, N-[1-methyl-3-(trifluoromethyl)-1H-pyrazol-4-yl]-2-[(3R)-piperidin-3-ylamino]pyrrolo[2,1-f][1,2,4]triazine-7-carboxamide trifluoroacetate] | 2 |
| O=C(Nc1ccsc1Br)c1ccc2cnc(N3CCCNCC3)nn12 [Example 37, N-(2-bromothiophen-3-yl)-2-(1,4-diazepan-1-yl)pyrrolo[2,1-f][1,2,4]triazine-7-carboxamide trifluoroacetate] | 1670 |
| N#Cc1cscc1NC(=O)c1ccc2cnc(N[C@@H]3CCCNC3)nn12 [Example 145, N-(4-cyanothiophen-3-yl)-2-[(3R)-piperidin-3-ylamino]pyrrolo[2,1-f][1,2,4]triazine-7-carboxamide trifluoroacetate] | 3 |
| Cn1cc(NC(=O)c2ccc3cnc(N[C@@H]4CCCNC4)nn23)c(C#N)n1 [Example 124, N-(3-cyano-1-methyl-1H-pyrazol-4-yl)-2-[(3R)-piperidin-3-ylamino]pyrrolo[2,1-f][1,2,4]triazine-7-carboxamide trifluoroacetate] | 0.8 |
| Cn1cc(NC(=O)c2ccc3cnc(N4CC5CCC(C4)N5)nn23)c(C(F)F)n1 [Example 83, 2-(3,8-diazabicyclo[3.2.1]oct-3-yl)-N-[3-[difluoromethyl)-1-methyl-1H-pyrazol-4-yl]pyrrolo[2,1-f][1,2,4]triazine-7-carboxamide trifluoroacetate] | 2 |
| O=C(Nc1cscc1Cl)c1ccc2cnc(N3C[C@H]4CC[C@@H]3CN4)nn12 (single isomer, unassigned) [Example 108, N-(4-chlorothiophen-3-yl)-2-[(1S,4S)- or (1R,4R)-2,5-diazabicyclo[2.2.2]oct-2-yl]pyrrolo[2,1-f][1,2,4]triazine-7-carboxamide trifluoroacetate] | 198 |
| Cn1cc(NC(=O)c2ccc3cnc(N[C@H]4CNC[C@H](F)C4)nn23)c(C(F)F)n1 [Example 165, N-[3-(difluoromethyl)-1-methyl-1H-pyrazol-4-yl]-2-{[(3R,5R)-5-fluoropiperidin-3-yl]amino}pyrrolo[2,1-f][1,2,4]triazine-7-carboxamide trifluoroacetate] | 1 |
| N[C@H]1CCCC[C@H]1Nc1ncc2ccc(C(=O)Nc3cscc3Cl)n2n1 [Example 109, 2-{[(1R,2S)-2-aminocyclohexyl]amino}-N-(4-chlorothiophen-3-yl)pyrrolo[2,1-f][1,2,4]triazine-7-carboxamide trifluoroacetate] | 2 |
| Cn1cc(NC(=O)c2ccc3cnc(N[C@@H]4CCCC(F)(F)[C@@H]4N)nn23)c(C#N)n1 [Example 98, 2-{[(1R,2R)-2-amino-3,3-difluorocyclohexyl]amino}-N-(3-cyano-1-methyl-1H-pyrazol-4-yl)pyrrolo[2,1-f][1,2,4]triazine-7-carboxamide trifluoroacetate] | 86 |
| Cn1cc(NC(=O)c2ccc3cnc(N[C@@H]4CC(F)(F)CC[C@@H]4N)nn23)c(C(F)F)n1 (single isomer, unassigned) [Example 140, 2-{[(1S,2R)- or (1R,2S)-2-amino-5,5-difluorocyclohexyl]amino}-N-[3-(difluoromethyl)-1-methyl-1H-pyrazol-4-yl]pyrrolo[2,1-f][1,2,4]triazine-7-carboxamide] | 3 |
| Cn1cc(NC(=O)c2ccc3cnc(N4CCCNCC4)nn23)c(C(F)F)n1 [Example 15, 2-(1,4-diazepan-1-yl)-N-[3-(difluoromethyl)-1-methyl-1H-pyrazol-4-yl]pyrrolo[2,1-f][1,2,4]triazine-7-carboxamide trifluoroacetate] | 6 |
| N[C@H]1CCCC[C@H]1Nc1ncc2ccc(C(=O)Nc3cscc3C(F)F)n2n1 [Example 42, 2-{[(1R,2S)-2-aminocyclohexyl]amino}-N-[4-(difluoromethyl)thiophen-3-yl]pyrrolo[2,1-f][1,2,4]triazine-7-carboxamide trifluoroacetate] | 4 |
| O=C(Nc1cscc1Cl)c1ccc2cnc(N3C[C@@H]4CC[C@H]3CN4)nn12 (single isomer, unassigned) [Example 107, N-(4-chlorothiophen-3-yl)-2-[(1S,4S)- or (1R,4R)-2,5-diazabicyclo[2.2.2]oct-2-yl]pyrrolo[2,1-f][1,2,4]triazine-7-carboxamide trifluoroacetate] | 368 |
| N[C@H]1CCCC[C@H]1Nc1ncc2ccc(C(=O)Nc3ccccc3Br)n2n1 [Example 32, 2-{[(1R,2S)-2-aminocyclohexyl]amino}-N-(2-bromophenyl)pyrrolo[2,1-f][1,2,4]triazine-7-carboxamide trifluoroacetate] | 11 |
| Cn1cc(NC(=O)c2ccc3cnc(N4C[C@@H]5CC[C@H]4CN5)nn23)c(Br)n1 (single isomer, unassigned) [Example 63, N-(3-bromo-1-methyl-1H-pyrazol-4-yl)-2-[(1S,4S)- or (1R,4R)-2,5-diazabicyclo[2.2.2]oct-2-yl]pyrrolo[2,1-f][1,2,4]triazine-7-carboxamide trifluoroacetate] | 92 |
| Cn1ncc(NC(=O)c2ccc3cnc(N[C@@H]4CCCC[C@@H]4N)nn23)c1C(F)(F)F [Example 70, 2-{[(1R,2S)-2-aminocyclohexyl]amino}-N-[1-methyl-5-(trifluoromethyl)-1H-pyrazol-4-yl]pyrrolo[2,1-f][1,2,4]triazine-7-carboxamide trifluoroacetate] | 26 |
